The text below walks through data of patent US10550143B2, “C,O-spiro aryl glycoside compounds, preparation therefor and use thereof” (SHANGHAI INSTITUTE OF MATERIA MEDICA, CHINESE ACADEMY OF …, priority 2015, dated 2020).

Experiment [1] has as its target T1, human sodium-glucose cotransporter 2 (SGLT2) (Homo sapiens, UniProt P31639).
T1 construct: expressed in transfected cells; host or cells: NIH3T3 (mouse fibroblast) cells expressing hSGLT2
T1 sequence (P31639 1-672): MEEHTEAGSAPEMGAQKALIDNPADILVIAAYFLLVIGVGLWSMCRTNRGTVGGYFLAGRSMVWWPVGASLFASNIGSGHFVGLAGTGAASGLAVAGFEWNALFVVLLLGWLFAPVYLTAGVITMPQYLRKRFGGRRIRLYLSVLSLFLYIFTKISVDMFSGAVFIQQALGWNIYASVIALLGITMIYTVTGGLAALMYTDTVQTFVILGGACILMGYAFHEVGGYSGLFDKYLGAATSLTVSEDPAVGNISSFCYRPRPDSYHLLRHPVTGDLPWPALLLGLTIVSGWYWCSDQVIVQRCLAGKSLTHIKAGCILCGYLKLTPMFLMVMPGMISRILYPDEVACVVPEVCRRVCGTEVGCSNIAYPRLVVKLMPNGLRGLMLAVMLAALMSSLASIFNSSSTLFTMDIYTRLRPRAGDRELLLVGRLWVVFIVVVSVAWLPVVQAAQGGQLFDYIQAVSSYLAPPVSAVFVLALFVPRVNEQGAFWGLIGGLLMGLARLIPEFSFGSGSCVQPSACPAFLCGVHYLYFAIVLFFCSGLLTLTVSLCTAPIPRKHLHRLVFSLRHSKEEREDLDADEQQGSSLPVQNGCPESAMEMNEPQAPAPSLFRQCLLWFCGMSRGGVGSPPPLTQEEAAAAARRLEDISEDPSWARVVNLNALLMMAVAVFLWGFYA
As to the kind of experiment: In vitro SGLT2 inhibition, methyl-α-D-[U-14C]glucopyranoside uptake in NIH3T3-hSGLT2 cells. Format: cell-based. To be noted: for Selectivity: IC50 SGLT1/IC50 SGLT2; for inhibition at 0.01 µM: SGLT2, 10 nM, read-out: % Inhibition rate ± SD 10 nM; for inhibition at 0.1 µM: SGLT2, 100 nM, read-out: % Inhibition rate ± SD 100 nM; for IC50: read-out: IC50 ± SD SGLT2. Here is the method: Inhibition of the compounds of formula I against human sodium-glucose cotransporter 2 (SGLT2) was determined experimentally and the experimental procedures were carried out as reference^1.
Methyl-α-D-[U-^14C] glucopyranoside (Perkin Elmer) Dimethylsulfoxide (Genebase, Prod No: 0231)
(1) Primary screening of hSGLT2 are conducted with two concentrations, 100 nM and 10 nM;
SGLT2 transports D-glucose at 1:1 sodium-glucose ratio, glucose is replaced by the non-metabolic and isotope labeled methyl-aD-[U-^14C] glucopyranoside and methyl-aD-glucopyranoside, and the amount of isotope transferred into the cells was determined.
1) 0.2% gelatin in a 96-well plate was put in a 37° C. incubator for further use;
2) NIH3T3-hSGLT2 cells were injected into 96-well plates, 40000/well, and 100 μL culture medium per well:
3) the fluid was changed in the next day, and sodium butyrate was added into medium at a final concentration of 2 mM;
4) wash the cells with 100 μL of KRH—Na^+ for 3 times and incubate cells with 50 μL for 30 minutes. Cells were changed to 50 μL of compound in KRH—Na^+, uptake buffer (KRH—Na^+ and methyl-α-D-[U-^14C]glucopyranoside and ⅙ mM methyl-α-D-glucopyranoside at 10 μL per well) was added; KRH-acetylcholine solution was used as background control instead of KRH-Na^+
5) washed with 100 μL PBS for 3 times, dried, 50 μL lysate and 150 μL scintillation fluid were added, the membrane was covered and flattened, shaken on a shaker to mix thoroughly, centrifuged at 1500 rpm at 4° C. for 3 min, taken out and read;
6) the results were analyses.
The inhibition rate (% Inhibiton) of each sample at each concentration was calculated by dividing the value of the compound well value minus the background value by the value of the DMSO control well value minus the background value.
IC50 is calculated as follows: […]
The y value is the activity or inhibition percent, the x value is the concentration of the corresponding compound, top (the maximum y value of the curve), bottom (the minimum y value of the curve).

The next experiment addresses T2, hSGLT1 (Homo sapiens, UniProt P13866).
T2 sequence (P13866 1-664): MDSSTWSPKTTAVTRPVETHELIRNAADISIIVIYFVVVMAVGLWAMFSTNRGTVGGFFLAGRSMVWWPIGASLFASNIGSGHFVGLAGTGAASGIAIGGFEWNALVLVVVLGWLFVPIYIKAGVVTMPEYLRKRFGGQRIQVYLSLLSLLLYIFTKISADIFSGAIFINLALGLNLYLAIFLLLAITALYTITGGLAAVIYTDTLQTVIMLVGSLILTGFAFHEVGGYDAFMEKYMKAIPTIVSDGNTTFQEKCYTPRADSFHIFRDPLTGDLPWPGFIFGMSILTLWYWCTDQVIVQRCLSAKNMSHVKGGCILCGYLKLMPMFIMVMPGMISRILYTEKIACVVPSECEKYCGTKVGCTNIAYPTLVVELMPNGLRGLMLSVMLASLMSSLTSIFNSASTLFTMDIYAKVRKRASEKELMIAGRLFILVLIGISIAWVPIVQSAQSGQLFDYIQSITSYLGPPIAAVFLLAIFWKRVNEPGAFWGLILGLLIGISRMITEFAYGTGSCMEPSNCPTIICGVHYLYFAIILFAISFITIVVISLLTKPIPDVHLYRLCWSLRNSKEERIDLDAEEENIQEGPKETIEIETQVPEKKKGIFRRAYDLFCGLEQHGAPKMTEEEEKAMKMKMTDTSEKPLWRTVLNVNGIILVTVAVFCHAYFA
The experiment can be described thus: In vitro SGLT1 inhibition (hSGLT1 IC50 test). It is filed as cell-based. To be noted: read-out: IC50 ± SD SGLT1.

The subject of another experiment is SD rats. The experiment can be described thus: Acute single administration, urinary glucose changes in SD rats. Format: in vivo, rat. The arrangement: Urine glucose concentration / The total amount of glucose excreted: unit not given here. To be noted: 1 mg/kg oral, after 24 h. Here is the method: (1) Acutely Administering Compound to Observed the Urinary Glucose Changes in SD Rats
Thirty-eight male normal SD rats were selected and randomly divided into 5 groups according to body weight and blood glucose, 6-8 in each group. […] After oral gavage, the rats were placed in rats metabolic cages, and urine was collected after 24 h, and the urine volume was recorded, the urine sugar concentration was determined, and urinary sugar content was calculated according to the following formula. Urine content=urinary sugar concentration×urine volume
Glucose levels in urine are measured by the glucose assay kit.
Data were expressed as mean±standard deviation (x±s), and Student's t test was used for statistical analysis of the data, p<0.05 was considered statistically significant.

A further experiment has as its system db/db mice. The experiment can be described thus: Chronic administration, random blood glucose in db/db mice. Format: in vivo, mouse. To be noted: for random blood glucose Pre: before administration; for Hypoglycemic rate % week 1 / Hypoglycemic rate % week 2 / Hypoglycemic rate % week 3 / Hypoglycemic rate % week 4: random blood glucose. Here is the method:
Oral gavage administrated, daily dose volume was 10 mL/kg, administered once daily. Administration time was 9: 00-10:00 daily, and the administration period was 5 weeks.
The random blood glucose of mice in the normal control group, model control group, test substance administration group and positive control group were determined on the 7th, 14th, 21st, 28th day (9: 00-10:00) every week after the first administration, and food was removed and after 6 hours of starvation, the fasting blood glucose in each group was measured. Free drinking during the hunger process. The rate of decrease of blood glucose was calculated according to the following formula: Average hypoglycemic rate %=(Blood glucose of model control group−Blood glucose of administration group)/Model control group×100%

As usually defined, the inhibition is the change of the read-out against control, counted positive when it falls. One may read the IC50 as the concentration that inhibits the measured activity by half. Take `CCc1ccc(Cc2ccc3c(c2)[C@]2(OC3)O[C@H](C)[C@@H](O)[C@H](O)[C@H]2O)cc1` [Example A2, (1S,3′R,4′S,5′S,6′R)-6′-methyl-6-(4-ethylbenzyl)-3′,4′,5′,6′-tetrahydro-3H-spiro[isobenzofuran-1,2′-pyran]-3′,4′,5′-triol]: in experiment [1], the Selectivity was 351, the inhibition at 0.01 µM turned out to be 51.4 ± 2.1%, the inhibition at 0.1 µM turned out to be 62.6 ± 2% and the IC50 stood at 63.5 ± 7.1 nM. At hSGLT1, the IC50 amounted to 22300 ± 4260 nM.

In the case of `CCc1ccc(Cc2cc3c(cc2Cl)CO[C@]32O[C@H](C)[C@@H](O)[C@H](O)[C@H]2O)cc1` [Example A22, (1S,3′R,4′S,5′S,6′R)-6′-methyl-6-(4-ethylbenzyl)-5-chloro-3′,4′,5′,6′-tetrahydro-3H-spiro[isobenzofuran-1,2′-pyran]-3′,4′,5′-triol], in experiment [1], the Selectivity is 13, the inhibition at 0.01 µM was determined as 25 ± 3.1%, the inhibition at 0.1 µM amounted to 79.8 ± 8.5% and the IC50 turned out to be 29.7 ± 18.4 nM. On hSGLT1, the IC50 amounted to 410 ± 50 nM.

Regarding `CCOc1ccc(Cc2cc3c(cc2Cl)CO[C@]32O[C@H](C)[C@@H](O)[C@H](O)[C@H]2O)cc1` [Example A26, (1S,3′R,4′S,5′S,6′R)-6′-methyl-6-(4-ethoxybenzyl)-5-chloro-3′,4′,5′,6′-tetrahydro-3H-spiro[isobenzofuran-1,2′-pyran]-3′,4′,5′-triol], in experiment [1], the Selectivity was 58, the inhibition at 0.01 µM was 51.5 ± 10.7%, the inhibition at 0.1 µM came to 90.5 ± 4.1% and the 50% inhibitory concentration (IC50) is 15.7 ± 2.1 nM. Besides, at hSGLT1, the IC50 was 920 ± 90 nM.

For `C[C@H]1O[C@]2(OCc3cc(Cl)c(Cc4cc5ccccc5s4)cc32)[C@H](O)[C@@H](O)[C@@H]1O` [Example A35, (1S,3′R,4′S,5′S,6′R)-6′-methyl-6-(benzo[b]thiophene-2-methyl)-5-chloro-3′,4′,5′,6′-tetrahydro-3H-spiro[isobenzofuran-1,2′-pyran]-3′,4′,5′-triol], in experiment [1], the Selectivity is 81, the inhibition at 0.01 µM turned out to be 22.4 ± 7.5%, the inhibition at 0.1 µM worked out at 95.7 ± 2% and the concentration for half-maximal inhibition (IC50) stood at 24 ± 2.4 nM. In addition, the IC50 on hSGLT1 amounted to 1950 ± 130 nM.

For `C[C@H]1O[C@]2(OCc3cc(Cl)c(Cc4cc5ccccc5o4)cc32)[C@H](O)[C@@H](O)[C@@H]1O` [Example A36, (1S,3′R,4′S,5′S,6′R)-6′-methyl-6-(benzo[b]furan-2-methyl)-5-chloro-3′,4′,5′,6′-tetrahydro-3H-spiro[isobenzofuran-1,2′-pyran]-3′,4′,5′-triol], in experiment [1], the Selectivity amounted to 166, the inhibition at 0.01 µM was determined as 24.4 ± 8.8%, the inhibition at 0.1 µM was 103 ± 3.7% and the half-maximal inhibitory concentration (IC50) is 32.4 ± 8.2 nM. Also, at hSGLT1, the IC50 stood at 5400 ± 660 nM.

For `COCCc1ccc(Cc2cc3c(cc2Cl)CO[C@]32O[C@H](C)[C@@H](O)[C@H](O)[C@H]2O)s1` [Example A114, (1S,3′R,4′S,5′S,6′R)-5-chloro-6-((5-(2-methoxyethyl)thiophene-2-yl)methyl)-6′-methyl-3-3′,4′,5′,6′-tetrahydro-3H-spiro[isobenzofuran-1,2′-pyran]-3′,4′,5′-triol], in experiment [1], the Selectivity was 83, the inhibition at 0.01 µM stood at 18.3 ± 2.2%, the inhibition at 0.1 µM turned out to be 71.4 ± 2.8% and the half-inhibitory concentration (IC50) was 43.5 ± 11.3 nM. The IC50 on hSGLT1 was determined as 3600 ± 260 nM.

Regarding `CCOc1ccc(Cc2cc([C@@H]3O[C@H](CO)[C@@H](O)[C@H](O)[C@H]3O)ccc2Cl)cc1` [dapagliflozin, reference compound], in experiment [1], the inhibition at 0.01 µM is 59.6 ± 11.3% and the inhibition at 0.1 µM worked out at 103 ± 2.8%. Besides, in the experiment with SD rats (Table 3), the “The total amount of glucose excreted” value turned out to be 1860.61 ± 575.28 and the Urine glucose concentration turned out to be 251.92 ± 52.98. Besides, the Urine volume with SD rats (Table 3, in mL) came to 40.75 ± 8.60. In the experiment with SD rats (Table 4), the “The total amount of glucose excreted” value was determined as 1822.21 ± 112.97 and the Urine glucose concentration turned out to be 382.41 ± 35.64. Besides, in the experiment on SD rats (Table 4, in mL), the Urine volume is 26.67 ± 3.01. In addition, in the experiment with db/db mice (1 mg/kg once daily oral), the “random blood glucose week 1” value stood at 14.9 ± 0.9 mmol/L, the “random blood glucose week 2” value was found to be 14.9 ± 1.1 mmol/L, the “random blood glucose week 3” value came out at 14.9 ± 1.0 mmol/L and the “random blood glucose week 4” value is given as 14.4 ± 1.1 mmol/L. Also, in the experiment on db/db mice (1 mg/kg once daily oral), the “random blood glucose Pre” value turned out to be 19.3 ± 1.2 mmol/L, the “Hypoglycemic rate % week 1” value was 24.0%, the “Hypoglycemic rate % week 2” value stood at 23.6% and the “Hypoglycemic rate % week 3” value was found to be 26.4%. Moreover, the “Hypoglycemic rate % week 4” value with db/db mice (1 mg/kg once daily oral) is given as 30.5%. Further, in the experiment with db/db mice (3 mg/kg once daily oral), the “random blood glucose week 1” value came out at 13.4 ± 0.8 mmol/L, the “random blood glucose week 2” value is 14.1 ± 0.8 mmol/L, the “random blood glucose week 3” value was found to be 15.2 ± 1.2 mmol/L and the “random blood glucose week 4” value is recorded as 11.7 ± 1.0 mmol/L. In addition, in the experiment on db/db mice (3 mg/kg once daily oral), the “random blood glucose Pre” value turned out to be 17.5 ± 1.2 mmol/L, the “Hypoglycemic rate % week 1” value is given as 32.0%, the “Hypoglycemic rate % week 2” value is 27.7% and the “Hypoglycemic rate % week 3” value is given as 25.4%. In the experiment with db/db mice (3 mg/kg once daily oral), the “Hypoglycemic rate % week 4” value came to 43.8%.
